The values below come from the METLIN SMRT retention time set (Domingo-Almenara et al. 2019).

This data set is described as follows: gradient 5% acetonitrile 3 min, to 50% in 2 min, to 85% in 15 min, held 3 min, 100 µL/min. Particulars: column: Zorbax Extend-C18 2.1 x 50 mm; eluents: water / acetonitrile, 0.1% formic acid. The method, boiled down: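 Pure standards were analyzed in mixtures of ~100 molecules using HPLC coupled to a quadrupole time-of-flight mass spectrometer, in both positive and negative ionization mode. Separation used a Zorbax Extend-C18 column (2.1 × 50 mm, 1.8 μm) at 100 μL/min, with water and acetonitrile each containing 0.1% formic acid. Dead and dwell volumes were 40 μL and 900 μL, and data were collected over 3 months. Retention time was read from computationally picked adduct peaks, each inspected manually.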
The molecule `COC(=O)c1cc(S(=O)(=O)N2CCCC2C(=O)Nc2ccc(C)cc2)cn1C` (centres undefined) displayed an RP-LC retention time of 869 s.
`Cc1cc(C)c(S(=O)(=O)N2CCC3(CC2)NCCN=C3NCc2ccccc2C)cc1C` returned an RP-LC retention time of 815 s.
The same measure for `CCOc1ccc(S(=O)(=O)N2CCCC(C(=O)NC(C)C)C2)cc1` (centres undefined): 825 s; for `COc1ccc(-c2cc(N3CCCC(C(=O)Nc4cccc5cccnc45)C3)ncn2)cc1` (centres undefined): 629 s; for `CC1CCN(C(=O)C2CCN(S(=O)(=O)c3ccc4c(c3)sc(=O)n4C(C)C)CC2)CC1`: 969 s.
Regarding `O=C(Cn1nc2c(cc1=O)CCCCC2)Nc1cccc(N2CCCCS2(=O)=O)c1`, the RP-LC retention time was 762 s.
Molecule `Cn1c(=O)c(=O)n(CC(=O)NCCc2ccco2)c2cccnc21` yielded an RP-LC retention time of 646 s.
The same measure for `CCNC(=O)c1cnn(-c2cc(-c3nc(CC)no3)ccn2)c1C`: 806 s.
The molecule `CCc1nc2cc(-c3noc(-c4cc(F)ccc4F)n3)ccc2o1` returned an RP-LC retention time of 1180 s.
The same measure for `COc1cc(CN2C[C@@H]3C(=O)N(Cc4ccc5c(c4)OCO5)C(=O)[C@@H]3C2)cc(OC)c1`: 741 s; for `COc1ccc(C2CC(=O)N(c3cccc(F)c3)C(=O)C2)cc1OC`: 839 s.
In turn, `Cc1c(C2CCN(C(=O)c3n[nH]c4ccccc34)CC2)noc1N` displayed an RP-LC retention time of 643 s.
Molecule `COc1ccc(-c2nnc(-c3cccnc3NCc3ccc(N(C)C)cc3)o2)cc1` yielded an RP-LC retention time of 873 s.
`O=C(NCc1cccs1)C1CCN(Cc2cc3ccccc3n2Cc2ccccc2Cl)CC1` yielded an RP-LC retention time of 821 s.
The same measure for `O=C(NCC1(CO)CC1)c1cccc(C(F)(F)F)c1`: 691 s; for `O=c1ccc(N2CCCN(S(=O)(=O)c3ccccc3F)CC2)nn1-c1ccccc1`: 820 s.
On to `COc1ccc(N2CCN(C(=O)C3CCN(S(=O)(=O)c4cn(C(C)C)cn4)CC3)CC2)cc1`, for which the RP-LC retention time came out at 706 s.
For the molecule `CCCCn1c(=O)c2c(nc3n2CCN3c2ccc(OC)cc2)n(C)c1=O`, the RP-LC retention time came to 939 s.
The same measure for `Cn1ccc2ccn(CC(=O)Nc3ccc(Br)cc3)c(=O)c21`: 795 s; for `COC(=O)c1ccccc1C(=O)N(Cc1cccnc1)c1nc2ccc(F)cc2s1`: 722 s; for `O=C(c1ccsc1)N1CCCC1Cc1noc(-c2cnccn2)n1` (centres undefined): 707 s.
`Cc1cc(N2CCCC2)nc(N2CCN(S(=O)(=O)c3ccc(-c4ccccc4)cc3)CC2)n1` had an RP-LC retention time of 911 s.
The same measure for `Cc1ccc2c(Nc3ccc4c(c3)OCO4)c(-c3nc(C4CC4)no3)cnc2n1`: 736 s; for `O=C(COc1ccc(Br)cc1)NCC(c1cccs1)N1CCCC1` (centres undefined): 672 s.
As to `COc1cccc(CNC(=O)c2cn3cc(Cl)ccc3n2)c1OC`, the RP-LC retention time is 824 s.
`CCN(C(=O)c1ccco1)c1nc(-c2ccccc2)cs1` gave an RP-LC retention time of 1180 s.
The same measure for `COc1ccc(N2CC(c3nnc(NC(=O)c4ccc(Cl)cc4)o3)CC2=O)cc1` (centres undefined): 835 s; for `O=C(CC1c2ncccc2C(=O)N1c1ccccc1)N1CCN(C2CCCCC2)CC1` (centres undefined): 591 s; for `Cc1ccc(NC(=O)c2cc(C3CC3)n3nccc3n2)c(F)c1`: 1150 s.
The same measure for `Cc1cc(C)cc(C(=O)N2CCCC(C(=O)NC3CC3)C2)c1` (centres undefined): 714 s; for `O=C(c1ccccc1)N1C[C@@H]2C[C@H]1C[C@@H]2NS(=O)(=O)c1cccnc1`: 630 s.
Regarding `O=C(NC1CCCCC1)c1ccc(CN2CCN(C3CCCC3)C(=O)C2=O)cc1`, the RP-LC retention time came out at 831 s.
The same measure for `Cc1cc(N2CCCCC2)nc(N2CCN(C(=O)C3CCCCC3)CC2)n1`: 728 s; for `CCOC(=O)N1CCN(C(=O)C2CCCN(c3ccc(-c4ccc(C)c(C)c4)nn3)C2)CC1` (centres undefined): 715 s; for `O=S(=O)(c1ccccc1)N1CCC(n2cnnc2-c2ccccc2)CC1`: 749 s.
The same measure for `COCCN1CCC(N2CCCN(C(=O)NCCc3ccccc3)CC2)C1=O` (centres undefined): 526 s.
Molecule `COc1ccccc1NC(=O)C(C)n1nc(C)c2nn(-c3ccccc3)c(-n3cccc3)c2c1=O` (centres undefined) gave an RP-LC retention time of 1130 s.
The same measure for `COc1ccc(C2Cn3nnc(C(=O)N4CCC(C(=O)NC5CCCCC5)CC4)c3CO2)cc1` (centres undefined): 860 s.
`CCCN(CC1CCOC1)C(=O)c1ccc(F)cc1Cl` (centres undefined) registered an RP-LC retention time of 773 s.
`CCC(=O)Nc1nc(-c2ccccc2)cs1` yielded an RP-LC retention time of 836 s.
In turn, `CCOc1ccc(-c2ccc(=O)n(Cc3nc(-c4ccc(CC)cc4)no3)n2)cc1` yielded an RP-LC retention time of 1230 s.
The same measure for `COc1ccc(-c2nc(-c3cccc(-c4ccn[nH]4)c3)no2)c(OC)c1`: 936 s.
The same measure for `CNC(=O)c1sc(Nc2ccc(Cl)cn2)nc1C`: 687 s; for `COc1ccc(Cl)cc1NC(=O)Cn1c(N2CCOCC2)nc(C)cc1=O`: 772 s.
Consider `COC(=O)c1c(C)[nH]c(C(=O)N2CCC(CC(=O)NCc3cccc(OC)c3)CC2)c1C`, for which the RP-LC retention time worked out at 715 s.
The same measure for `CC(Cc1ccco1)NC(=O)CN1C(=O)CN(C(=O)NCc2ccccc2)c2ccccc21` (centres undefined): 816 s; for `Cc1ccc(N2C(=O)CN(S(=O)(=O)c3ccccc3)CC2(C)C(=O)NC2CCCC2)cc1C` (centres undefined): 963 s.
Consider `Cc1ccc(NC(=O)C(C)C2CCN(C(=O)Nc3ccc(Cl)cc3)CC2)cc1` (centres undefined), for which the RP-LC retention time is 963 s.
As to `Cc1nc2c(C(=O)N3CCN(c4ccccn4)CC3)cnn2c(C)c1Cc1ccccc1Cl`, the RP-LC retention time was determined as 697 s.
The same measure for `CCNC(=O)c1nc(C(=O)NCc2cc(F)cc(F)c2)cs1`: 781 s.
The same measure for `CCN1C(=O)c2cccc3c(NC(=O)c4ccc(C(=O)OC)cc4)ccc1c23`: 638 s.
As to `COC(=O)c1ccccc1Sc1c(-c2ccccc2)nc2ncccn12`, the RP-LC retention time is 875 s.
For `COCCN1C(=O)c2ccccc2C(C(=O)NCc2cccc(F)c2)C12CCCC2` (centres undefined), the RP-LC retention time turned out to be 866 s.
The same measure for `Cc1c(F)cccc1NC(=O)N1CC(Cc2nncn2C(C)C)C1`: 659 s; for `O=C1N(c2cccc(F)c2)c2ncccc2S(=O)(=O)N1Cc1ccccc1F`: 1020 s.
`CCCNc1cc(N2CCC(CCC(=O)NCc3cccs3)CC2)ncn1` returned an RP-LC retention time of 661 s.
The same measure for `O=C(N[C@H]1C[C@@H]2C[C@H]1CN2C(=O)c1cccc(C(F)(F)F)c1)c1ccccc1`: 809 s; for `CC1CCN(C(=O)c2nnc(-c3ccc(S(=O)(=O)N4CCCC4)cc3)o2)CC1`: 952 s; for `O=C(Cn1cnc2nc3c(cc2c1=O)CCCC3)Nc1ccc(Br)cc1F`: 791 s.
